Patent US20220363686A1 (AiCuris GmbH & Co. KG, priority 2018, published 2022)

What was measured:
[1] = Cell viability assay (AlamarBlue); conditions: human, HepAD38 cells
HBV = experiment: Determination of HBV DNA from the supernatants of HepAD38 cells (anti-HBV activity); format: cell-based, hepatitis B virus; conditions: Hepatitis B virus, HePAD38, 144 h, HBV DNA in HepAD38 supernatant, day 6, qPCR; read-out: Cell Activity
Protocol: The anti-HBV activity was analysed in the stable transfected cell line HepAD38, which has been described to secrete high levels of HBV virion particles (Ladner et al., 1997). In brief, HepAD38 cells were cultured at 37° C. at 5% CO2 and 95% humidity in 200 μl maintenance medium, which was Dulbecco's modified Eagle's medium/Nutrient Mixture F-12 (Gibco, Karlsruhe), 10% fetal bovine serum (PAN Biotech Aidenbach) supplemented with 50 μg/ml penicillin/streptomycin (Gibco, Karlsruhe), 2 mM L-glutamine (PAN Biotech, Aidenbach), 400 μg/ml G418 (AppliChem, Darmstadt) and 0.3 μg/ml tetracycline. Cells were subcultured once a week in a 1:5 ratio, but were usually not passaged more than ten times. For the assay 60,000 cells were seeded in maintenance medium without any tetracycline into each well of a 96-well plate and treated with serial half-log dilutions of test compound. To minimize edge effects the outer 36 wells of the plate were not used but were filled with assay medium. On each assay plate six wells for the virus control (untreated HepAD38 cells) and six wells for the cell control (HepAD38 cells treated with 0.3 μg/ml tetracycline) were allocated, respectively. In addition, one plate set with reference inhibitors like BAY 41-4109, entecavir, and lamivudine instead of screening compounds were prepared in each experiment. In general, experiments were performed thrice in triplicates. At day 6 HBV DNA from 100 μl filtrated cell culture supernatant (AcroPrep Advance 96 Filter Plate, […] Supor membran, PALL GmbH, Dreieich) was automatically purified on the MagNa Pure LC instrument using the MagNA Pure 96 DNA and Viral NA Small Volume Kit (Roche Diagnostics, Mannheim) according to the instructions of the manufacturer. EC50 values were calculated from relative copy numbers of HBV DNA In brief, 5 μl of the 100 μl eluate containing HBV DNA were subjected to PCR LC480 Probes Master Kit (Roche) together with 1 μM antisense primer […], 0.5 μM sense primer […], 0.3 μM hybprobes […]-FL and LC640-[…]-PH (TIBMolBiol, Berlin) to a final volume of 12.5 μl. The PCR was performed on the Light Cycler 480 real time system (Roche Diagnostics, Mannheim) using the following protocol: Pre-incubation for 1 min at 95° C., amplification: 40 cycles×(10 sec at 95° C., 50 sec at 60° C., 1 sec at 70° C.), cooling for 10 sec at 40° C. Viral load was quantitated against known standards using HBV plasmid DNA of pCH-9/3091 (Nassal et al., 1990, Cell 63: 1357-1363) and the LightCycler 480 SW 1.5 software (Roche Diagnostics, Mannheim) and ECso values were calculated using non-linear regression with GraphPad Prism 6 (GraphPad Software Inc., La Jolla, USA).

[2] = target: HBV core protein (C-terminal truncated core protein containing 149 amino acids of the N-terminal assembly domain) (UniProt P03146); experiment: Biochemical capsid assembly assay (fluorescence quenching); design: rows headed: Assembly Activity; other: BODIPY-FL labelled core protein, assembly started with NaCl, read after 6 min; conditions: read-out: Assembly Activity; BODIPY-FL labelled core protein, assembly started with NaCl, read after 6 min
HBV core protein (C-terminal truncated core protein containing 149 amino acids of the N-terminal assembly domain), sequence (P03146 whole entry, the tested form may be a part): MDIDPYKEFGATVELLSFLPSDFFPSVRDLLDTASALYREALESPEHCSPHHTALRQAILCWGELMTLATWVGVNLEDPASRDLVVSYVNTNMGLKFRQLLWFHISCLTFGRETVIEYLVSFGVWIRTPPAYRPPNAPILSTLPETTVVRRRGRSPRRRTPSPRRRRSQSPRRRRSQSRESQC
Protocol: The screening for assembly effector activity was done based on a fluorescence quenching assay published by Zotnick et al. (2007). The C-terminal truncated core protein containing 149 amino acids of the N-terminal assembly domain fused to a unique cysteine residue at position 150 and was expressed in E. coli using the pET expression system (Merck Chemicals, Darmstadt). Purification of core dimer protein was performed using a sequence of size exclusion chromatography steps. In brief, the cell pellet from 1 L BL21 (DE3) Rosetta2 culture expressing the coding sequence of core protein cloned NdeI/XhoI into expression plasmid pET21b was treated for 1 h on ice with a native lysis buffer (Qproteome Bacterial Protein Prep Kit; Qiagen, Hilden). After a centrifugation step the supernatant was precipitated during 2 h stirring on ice with 0.23 g/ml of solid ammonium sulfate. Following further centrifugation the resulting pellet was resolved in buffer A (100 mM Tris, pH 7.5; 100 mM NaCl; 2 mM DTT) and was subsequently loaded onto a buffer A equilibrated CaptoCore 700 column (GE HealthCare, Frankfurt). The column flow through containing the assembled HBV capsid was dialyzed against buffer N (50 mM NaHCO3 pH 9.6; 5 mM DTT) before urea was added to a final concentration of 3M to dissociate the capsid into core dimers for 1.5 h on ice. The protein solution was then loaded onto a IL Sephacryl S300 column. After elution with buffer N core dimer containing fractions were identified by SDS-PAGE and subsequently pooled and dialyzed against 50 mM HEPES pH 7.5; 5 mM DTT. To improve the assembly capacity of the purified core dimers a second round of assembly and disassembly starting with the addition of 5 M NaCl and including the size exclusion chromatography steps described above was performed. From the last chromatography step core dimer containing fractions were pooled and stored in aliquots at concentrations between 1.5 to 2.0 mg/ml at −80° C.
Immediately before labelling the core protein was reduced by adding freshly prepared DTT in a final concentration of 20 mM. After 40 min incubation on ice storage buffer and DTT was removed using a Sephadex G-25 column (GE HealthCare, Frankfurt) and 50 mM HEPES, pH 7.5. For labelling 1.6 mg/ml core protein was incubated at 4° C. and darkness overnight with BODIPY-FL maleimide (Invitrogen, Karlsruhe) in a final concentration of 1 mM. After labelling the free dye was removed by an additional desalting step using a Sephadex G-25 column. Labelled core dimers were stored in aliquots at 4° C. In the dimeric state the fluorescence signal of the labelled core protein is high and is quenched during the assembly of the core dimers to high molecular capsid structures. The screening assay was performed in black 384 well microtiter plates in a total assay volume of 10 μl using 50 mM HEPES pH 7.5 and 1.0 to 2.0 μM labelled core protein. Each screening compound was added in 8 different concentrations using a 0.5 log-unit serial dilution starting at a final concentration of 100 μM, 31.6 μM or 10 μM, In any case the DMSO concentration over the entire microtiter plate was 0.5%. The assembly reaction was started by the injection of NaCl to a final concentration of […] which induces the assembly process to approximately 25% of the maximal quenched signal. 6 min after starting the reaction the fluorescence signal was measured using a Clariostar plate reader (BMG Labtech, Ortenberg) with an excitation of 477 nm and an emission of 525 nm. As 100% and 0% assembly control HEPES buffer containing 2.5 M and 0 M NaCl was used. Experiments were performed thrice in triplicates. EC50 values were calculated by non-linear regression analysis using the Graph Pad Prism 6 software (GraphPad Software, La Jolla, USA).

| SMILES | CC50 at 6 days [1] | EC50 (HBV) | IC50 [2] |
| --- | --- | --- | --- |
| COCC1(N(C)C(=O)c2cnn3c2CN(C(=O)c2cc4ccccc4[nH]2)CC3)CC1 [Example 9, 5-(1H-indole-2-carbonyl)-N-[1-(methoxymethyl)cyclopropyl]-N-methyl-4H,5H,6H,7H-pyrazolo[1,5-a]pyrazine-3-carboxamide] | > 10 µM | < 1 µM | < 5 µM |
| COCC1(CNC(=O)c2cnn3c2CN(C(=O)c2cc4ccccc4[nH]2)CC3)CC1 [Example 10, 5-(1H-indole-2-carbonyl)-N-{[1-(methoxymethyl)cyclopropyl]methyl}-4H,5H,6H,7H-pyrazolo[1,5-a]pyrazine-3-carboxamide] | > 10 µM | 1 to 10 µM | 5 to 10 µM |
| CC(C)OCC1(N(C)C(=O)c2cnn3c2CN(C(=O)c2cc4ccccc4[nH]2)CC3)CC1 [Example 11, 5-(1H-indole-2-carbonyl)-N-methyl-N-{1-[(propan-2-yloxy)methyl]cyclopropyl}-4H,5H,6H,7H-pyrazolo[1,5-a]pyrazine-3-carboxamide] | > 10 µM | < 1 µM | < 5 µM |
| CCOCC1(N(C)C(=O)c2cnn3c2CN(C(=O)c2cc4ccccc4[nH]2)CC3)CC1 [Example 12, N-[1-(ethoxymethyl)cyclopropyl]-5-(1H-indole-2-carbonyl)-N-methyl-4H,5H,6H,7H-pyrazolo[1,5-a]pyrazine-3-carboxamide] | > 10 µM | < 1 µM | < 5 µM |
| CN(C(=O)c1cnn2c1CN(C(=O)c1cc3c(Cl)cccc3[nH]1)CC2)C1(CO)CC1 [Example 13, 5-(4-chloro-1H-indole-2-carbonyl)-N-[1-(hydroxymethyl)cyclopropyl]-N-methyl-4H,5H,6H,7H-pyrazolo[1,5-a]pyrazine-3-carboxamide] | > 10 µM | < 1 µM | < 5 µM |
| CCc1cc(F)cc2[nH]c(C(=O)N3CCn4ncc(C(=O)N(C)C5(CO)CC5)c4C3)cc12 [Example 14, 5-(4-ethyl-6-fluoro-1H-indole-2-carbonyl)-N-[1-(hydroxymethyl)cyclopropyl]-N-methyl-4H,5H,6H,7H-pyrazolo[1,5-a]pyrazine-3-carboxamide] | > 10 µM | < 1 µM | < 5 µM |
| CN(C(=O)c1cnn2c1CN(C(=O)c1cc3ccccc3[nH]1)CC2)C1(CO)CC1 [Example 15, N-[1-(hydroxymethyl)cyclopropyl]-5-(1H-indole-2-carbonyl)-N-methyl-4H,5H,6H,7H-pyrazolo[1,5-a]pyrazine-3-carboxamide] | > 10 µM | < 1 µM | < 5 µM |
| CN(C(=O)c1cnn2c1CN(C(=O)c1cc3ccccc3[nH]1)CC2)C1(COC(F)F)CC1 [Example 16, N-{1-[(difluoromethoxy)methyl]cyclopropyl}-5-(1H-indole-2-carbonyl)-N-methyl-4H,5H,6H,7H-pyrazolo[1,5-a]pyrazine-3-carboxamide] | > 10 µM | < 1 µM | < 5 µM |
| O=C(c1cc2ccccc2[nH]1)N1CCn2ncc(C(=O)N3CC(F)(F)CC34CC4)c2C1 [Example 19, 2-(3-{6,6-difluoro-4-azaspiro[2.4]heptane-4-carbonyl}-4H,5H,6H,7H-pyrazolo[1,5-a]pyrazine-5-carbonyl)-1H-indole] | > 10 µM | < 1 µM | < 5 µM |
| CC1Cn2ncc(C(=O)N(C)C3(COC(F)F)CC3)c2CN1C(=O)c1cc2ccccc2[nH]1 (stereo not drawn) [Example 20, N-{1-[(difluoromethoxy)methyl]cyclopropyl}-5-(1H-indole-2-carbonyl)-N,6-dimethyl-4H,5H,6H,7H-pyrazolo[1,5-a]pyrazine-3-carboxamide] | > 10 µM | < 1 µM | < 5 µM |
| CN(C(=O)c1cnn2c1CN(C(=O)c1cc3c(F)c(F)ccc3[nH]1)CC2)C1(COC(F)F)CC1 [Example 21, 5-(4,5-difluoro-1H-indole-2-carbonyl)-N-{1-[(difluoromethoxy)methyl]cyclopropyl}-N-methyl-4H,5H,6H,7H-pyrazolo[1,5-a]pyrazine-3-carboxamide] | > 10 µM | < 1 µM | < 5 µM |
| CCc1cc(F)cc2[nH]c(C(=O)N3CCn4ncc(C(=O)N(C)C5(COC(F)F)CC5)c4C3)cc12 [Example 22, N-{1-[(difluoromethoxy)methyl]cyclopropyl}-5-(4-ethyl-6-fluoro-1H-indole-2-carbonyl)-N-methyl-4H,5H,6H,7H-pyrazolo[1,5-a]pyrazine-3-carboxamide] | > 10 µM | < 1 µM | < 5 µM |
| CN(C(=O)c1cnn2c1CN(C(=O)c1cc3cc(F)c(Cl)cc3[nH]1)CC2)C1(COC(F)F)CC1 [Example 23, 5-(6-chloro-5-fluoro-1H-indole-2-carbonyl)-N-{1-[(difluoromethoxy)methyl]cyclopropyl}-N-methyl-4H,5H,6H,7H-pyrazolo[1,5-a]pyrazine-3-carboxamide] | > 10 µM | < 1 µM | < 5 µM |
| CN(C(=O)c1cnn2c1CN(C(=O)c1cc3c(F)ccc(F)c3[nH]1)CC2)C1(COC(F)F)CC1 [Example 24, 5-(4,7-difluoro-1H-indole-2-carbonyl)-N-{1-[(difluoromethoxy)methyl]cyclopropyl}-N-methyl-4H,5H,6H,7H-pyrazolo[1,5-a]pyrazine-3-carboxamide] | > 10 µM | < 1 µM | < 5 µM |
